By Km is commonly meant the concentration of substrate that gives half-maximal velocity. For orientation: kcat means the maximal rate divided by the concentration of active sites.

This is an account of results in patent US20210277441A1, “METHOD OF SELECTING A POLYPEPTIDE OF INTEREST” (IMPERIAL COLLEGE INNOVATIONS LIMITED, priority 2018, published 2021).

The target in test [1] is Myxococcus stipitatus imine reductase (MsIRED) variant MsIRED-c (best previously described NADH-dependent variant, 5 residue substitutions) (Myxococcus stipitatus, UniProt L7U9F5). The test can be described thus: Kinetics of MsIRED-c (best previously described NADH-dependent variant), 2-methylpyrroline reduction with NADH. Type of test: biochemical. Particulars: cofactor NADH (0.25 mM); enzyme 1.2675 uM.

In test [2] the target is Enterobacter cloacae nitroreductase (EntNFSB) variant EntNFSB-s2, T41L/Y68L/F124L, SEQ ID NO: 40 (Enterobacter cloacae, UniProt Q01234, F124L/T41L/Y68L). Type of test: biochemical. Particulars: cofactor NADH; enzyme 1 uM.
Test [3] relates to LS1 strain (ΔadhE ΔldhA double mutant) cells. The test can be described thus: Metabolic complementation (anaerobic growth recovery) of LS1/AL strain. As to conditions: LS1, no exogenous substrate. The format is cell-based, Escherichia coli. On the procedure: (§1) The LS1 mutant strain and the parental BW25113 strain were transformed with the desired plasmid and overnight pre-cultures were grown aerobically in 15 mL Falcon tubes with M9 media (0.4% glucose). These pre-cultures were used to inoculate 10 mL Hungate tubes with M9 medium (0.4% glucose) supplemented with 100 μg/mL ampicillin, 1 mM IPTG and with or without the specific substrate of the dehydrogenase under anaerobic conditions at 37° C. Metabolic complementation was assessed by measuring the optical density at 600 nm every two hours during daytime.

The test system of the next test is AL cells. The test can be described thus: 1H NMR analysis of fermentation broth of anaerobic cultures. As to conditions: no exogenous substrate. The format is cell-based, Escherichia coli.
The subject of another test is LS5 strain. The test can be described thus: Metabolic complementation (anaerobic growth) of quadruple mutant. The format is cell-based, Escherichia coli. On the procedure: as §1
Since in the triple mutants the non-deleted transhydrogenase could still be supporting anaerobic growth under anaerobic fermentation conditions when complemented with an NADPH-dependent oxidoreductase by generating oxidized NAD, the inventors generated a quadruple mutant where adhE, ldhA, sthA and pntA genes were deleted (LS5 strain, FIG. 11).

The target in test [4] is Enterobacter cloacae nitroreductase (EntNFSB) variant EntNFSB-s1, S40A/T41I/F124A, SEQ ID NO: 38 (Enterobacter cloacae, UniProt Q01234, F124A/S40A/T41I). Nature of the test: Kinetics of evolved EntNFSB-s1, 2-nitrobenzoic acid reduction with NADH. As to conditions: cofactor NADH; enzyme 1 uM.
Chain of Enterobacter cloacae nitroreductase (EntNFSB) variant EntNFSB-s1, S40A/T41I/F124A, SEQ ID NO: 38 (Q01234 whole entry S40A/T41I/F124A): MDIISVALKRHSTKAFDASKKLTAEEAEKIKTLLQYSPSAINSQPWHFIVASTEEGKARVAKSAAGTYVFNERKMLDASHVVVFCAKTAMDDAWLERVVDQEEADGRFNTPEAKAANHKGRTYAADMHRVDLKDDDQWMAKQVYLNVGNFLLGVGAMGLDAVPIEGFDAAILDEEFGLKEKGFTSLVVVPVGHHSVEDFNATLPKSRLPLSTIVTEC

Chain of Enterobacter cloacae nitroreductase (EntNFSB) variant EntNFSB-s2, T41L/Y68L/F124L, SEQ ID NO: 40 (Q01234 whole entry T41L/Y68L/F124L): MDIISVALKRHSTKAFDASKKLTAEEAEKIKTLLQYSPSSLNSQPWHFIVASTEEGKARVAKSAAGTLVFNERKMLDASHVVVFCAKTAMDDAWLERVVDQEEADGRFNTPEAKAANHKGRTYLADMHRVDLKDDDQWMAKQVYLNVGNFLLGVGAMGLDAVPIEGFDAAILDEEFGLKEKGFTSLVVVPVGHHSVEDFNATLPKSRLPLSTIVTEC

In the case of `CC1=NCCC1` [2-methylpyrroline, 2-methyl-1-pyrroline], in test [1], the Km worked out at 41.8 mM and the kcat was 119.6 min⁻¹.

As for `O=[N+]([O-])c1ccc(CO)cc1` [4-nitrobenzyl alcohol], in test [2], the Michaelis constant (Km) was found to be 1.11 mM and the kcat stood at 4.35 min⁻¹.

As for “pLS1: pUC19 with ADH NADH-dependent from Escherichia coli (adhE)”, the anaerobic growth recovery result in test [3] is on record as “restoration of ability to grow anaerobically”. Moreover, in the test with AL cells, the Acetate concentration came to 12.1, the Ethanol concentration is 13.8, the Formate concentration is on record as 20.7 and the Lactate concentration came out at 0. This molecule also had a Succinate concentration with AL cells of 5.2. Besides, in the test on LS5 strain, the anaerobic growth result was “anaerobic growth is restored”.

Regarding `O=C(O)c1ccccc1[N+](=O)[O-]` [2-nitrobenzoic acid], the kcat in test [4] is 1.17 min⁻¹.
